Data from publication PMC3785825 (Journal of the Royal Society Interface, 2013).
No end group written: not given here.

Experiments:
[1] = tested on: CGRP receptors; details: double alanine mutant R^11AR^18A; cited from earlier work
Description: The loop conformations spanned a large proportion of the space available to ECL2 (figure 4a). […] ECL2 forms an extended loop; this conformation is often seen as two antiparallel beta-strands in all peptide GPCRs for which structures are available, creating a large interface for peptide–receptor contacts. Here, we re-interpret seve ...

[2] = tested on: CLR Y278A/RAMP1 (CGRP receptor); test: AM-stimulated cAMP (alphascreen), Y278A mutant; type: cell-based, human; details: Cos 7 cells
Description: (§1) Curve fitting was done with […]
(§2) To explore the effects of the above mutants further, their ability to respond to AM through cAMP production was subsequently investigated. […] There was especially good agreement between the two agonists for the central area of functional importance ranging from D280 to T288. […] The effect of mutations at the N- and C-termini of ECL2 was more variable between the two peptides.

[3] = tested on: CLR T288A/RAMP1 (CGRP receptor); test: AM-stimulated cAMP (alphascreen), T288A mutant; type: cell-based, human; details: residue T288; effect of alanine mutation on AM
Description: as §1, §2

[4] = tested on: CLR ECL2 mutants with human RAMP1; test: AM-stimulated cAMP (alphascreen), ECL2 alanine scan; type: cell-based; details: some mutants (not given); Cos 7 cells
Description: as §1, §2

[5] = tested on: CLR R274A/RAMP1 (CGRP receptor); test: AM-stimulated cAMP (alphascreen), R274A mutant; type: cell-based, human
Description: as §1, §2

[6] = tested on: CLR L290A/RAMP1 (CGRP receptor); test: AM-stimulated cAMP (alphascreen), L290A mutant; type: cell-based, human; details: Cos 7 cells
Description: as §1, §2

[7] = tested on: CLR W283A/RAMP1 (CGRP receptor); test: AM-stimulated cAMP (alphascreen), W283A mutant; type: cell-based, human
Description: as §1, §2

[8] = tested on: CGRP receptor; details: AM at the CGRP receptor versus CGRP; cited from earlier work
[9] = tested on: CLR D280A/RAMP1 (CGRP receptor); test: AM-stimulated cAMP (alphascreen), D280A mutant; type: cell-based, human
Description: as §1, §2

[10] = tested on: CLR L291A/RAMP1 (CGRP receptor); test: AM-stimulated cAMP (alphascreen), L291A mutant; type: cell-based, human; details: Cos 7 cells
Description: as §1, §2

[11] = tested on: CLR Y277A/RAMP1 (CGRP receptor); test: AM-stimulated cAMP (alphascreen), Y277A mutant; type: cell-based, human; details: Cos 7 cells
Description: as §1, §2

[12] = tested on: CLR I284A/RAMP1 (CGRP receptor); test: AM-stimulated cAMP (alphascreen), I284A mutant; type: cell-based, human; details: residue I284; effect of alanine mutation on AM
Description: as §1, §2

[13] = tested on: CLR A273L/RAMP1 (CGRP receptor); test: AM-stimulated cAMP (alphascreen), A273L mutant; type: cell-based, human; details: residue A273 (mutated to leucine); effect of mutation on AM
Description: as §1, §2

[14] = tested on: CLR S285A/RAMP1 (CGRP receptor); test: AM-stimulated cAMP (alphascreen), S285A mutant; type: cell-based, human; details: residue S285; effect of alanine mutation on AM
Description: as §1, §2

| reduction in maximal cAMP response [2] | AM effect [3] | AM effect ([5]; residue R274, effect of alanine mutation on AM) | potency versus WT [6] | AM effect ([7]; residue W283, effect of alanine mutation on AM) | AM effect ([9]; residue D280, effect of alanine mutation on AM) | potency versus WT [10] | reduction in maximal cAMP response [11] | AM effect [12] | AM effect [13] | AM effect [14] | Substance | reduction in affinity [1] | effect on pEC50 [2] | activation of the receptor [4] | cAMP response / Emax ([5]; R274A, Cos 7 cells) | cAMP response / Emax ([7]; W283A, Cos 7 cells) | affinity, folds less than that for CGRP [8] | cAMP response / Emax ([9]; D280A, Cos 7 cells) | effect on pEC50 [11] |
| --- | --- | --- | --- | --- | --- | --- | --- | --- | --- | --- | --- | --- | --- | --- | --- | --- | --- | --- | --- |
| – | – | – | – | – | – | – | – | – | – | – | R^11AR^18A: double alanine mutant of CGRP, literature (ACDTATCVTHALAGLLSASGGVVKNNFVPTNVGSKAF; not fully specified; ends and bridges not checked; UniProt P06881 83-119, looked up, variant R11A R18A) | 100 fold | – | – | – | – | – | – | – |
| approximately 25% | √ | √ | not significantly affected | √ | √ | not significantly affected | approximately 25% | √ | √ | √ | adrenomedullin [AM] | – | did not show AM-mediated effects on pEC50 | impossible to measure any activation of the receptor | so low that an Emax could not be reliably determined | so low that an Emax could not be reliably determined | approximately 10 folds | so low that an Emax could not be reliably determined | did not show AM-mediated effects on pEC50 |
